Measured values: patent US8163909B2, “Substituted hydroxyethyl amine compounds as beta-secretase modulators and methods of use” (Amgen Inc., priority 2007, dated 2012)
Read-outs that look alike come from different tables or passages of the source.

Assays:
[1] = Microsomal stability assay, rat liver microsomes;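 note: rat liver microsomes (0.25 mg/mL) with about 1 µM compound plus 1 mM NADPH, pH 7.4, 37 °C for 30 min, parent left measured by LC-MS/MS against 0 min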
[2] = system: Aβ40 in conditioned medium of cells stably expressing Amyloid Precursor Protein (APP); test: In vitro BACE cell-based assay (Aβ40 in conditioned medium, sandwich ELISA); details: Homo sapiens, read-out: HEK cell assay;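 note: compounds added as a dilution series, secreted peptide quantified by europium time-resolved fluorescence readout, potency fitted from percent of control versus compound concentration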
CYP3A4 (CYP3A) = CYP3A4 (CYP3A) (Homo sapiens, UniProt P08684); test: in vitro; details: microsomes, pH 7.4;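 note: inhibition of CYP3A-mediated 1-hydroxymidazolam formation after 10 min incubation with NADPH, quantified by HPLC MS relative to metabolite produced without test compound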
Sequence of CYP3A4 (CYP3A) (P08684 2-503): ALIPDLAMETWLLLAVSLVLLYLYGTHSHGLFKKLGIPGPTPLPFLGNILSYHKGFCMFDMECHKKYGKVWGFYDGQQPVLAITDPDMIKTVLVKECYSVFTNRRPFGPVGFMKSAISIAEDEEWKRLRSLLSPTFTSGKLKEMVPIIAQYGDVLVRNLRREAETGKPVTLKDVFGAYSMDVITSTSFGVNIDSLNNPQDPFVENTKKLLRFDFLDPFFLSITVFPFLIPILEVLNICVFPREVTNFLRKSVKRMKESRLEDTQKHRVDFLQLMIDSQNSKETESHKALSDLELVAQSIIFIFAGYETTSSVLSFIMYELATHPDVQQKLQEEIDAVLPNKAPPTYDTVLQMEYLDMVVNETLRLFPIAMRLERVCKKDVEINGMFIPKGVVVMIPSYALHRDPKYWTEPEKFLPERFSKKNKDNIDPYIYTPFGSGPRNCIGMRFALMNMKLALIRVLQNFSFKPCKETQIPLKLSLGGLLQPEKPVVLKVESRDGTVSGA

CYP2D6 = CYP2D6 (Homo sapiens, UniProt P10635); test: CYP2D6 inhibition assay (bufuralol, pooled human liver microsomes)
Sequence of CYP2D6 (P10635 whole entry): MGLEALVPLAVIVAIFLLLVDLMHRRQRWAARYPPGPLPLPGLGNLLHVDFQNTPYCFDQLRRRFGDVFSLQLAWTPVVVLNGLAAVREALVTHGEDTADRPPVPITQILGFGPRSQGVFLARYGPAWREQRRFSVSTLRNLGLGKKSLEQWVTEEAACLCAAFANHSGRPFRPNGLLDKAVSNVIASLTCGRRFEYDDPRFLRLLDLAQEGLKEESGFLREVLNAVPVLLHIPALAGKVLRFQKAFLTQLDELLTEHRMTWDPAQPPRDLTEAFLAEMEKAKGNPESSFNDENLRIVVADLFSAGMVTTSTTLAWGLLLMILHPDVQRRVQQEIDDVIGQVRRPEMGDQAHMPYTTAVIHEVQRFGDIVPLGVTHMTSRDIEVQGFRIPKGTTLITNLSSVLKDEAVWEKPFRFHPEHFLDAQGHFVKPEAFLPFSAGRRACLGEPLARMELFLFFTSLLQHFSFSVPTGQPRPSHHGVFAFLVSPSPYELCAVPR

[3] = target: Beta Secretase enzyme (BACE) (Homo sapiens, UniProt P56817); test: In vitro enzymatic BACE FRET (fluorescence resonance energy transfer) assay; assay type: biochemical; details: read-out: BACE1 FRET assay;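 note: fluorescence read after 1 h with 50 nM quenched peptide substrate spanning the BACE cleavage site, in pH 4.2 acetate buffer containing 10% DMSO and nonionic detergent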
Sequence of Beta Secretase enzyme (BACE) (P56817 46-501): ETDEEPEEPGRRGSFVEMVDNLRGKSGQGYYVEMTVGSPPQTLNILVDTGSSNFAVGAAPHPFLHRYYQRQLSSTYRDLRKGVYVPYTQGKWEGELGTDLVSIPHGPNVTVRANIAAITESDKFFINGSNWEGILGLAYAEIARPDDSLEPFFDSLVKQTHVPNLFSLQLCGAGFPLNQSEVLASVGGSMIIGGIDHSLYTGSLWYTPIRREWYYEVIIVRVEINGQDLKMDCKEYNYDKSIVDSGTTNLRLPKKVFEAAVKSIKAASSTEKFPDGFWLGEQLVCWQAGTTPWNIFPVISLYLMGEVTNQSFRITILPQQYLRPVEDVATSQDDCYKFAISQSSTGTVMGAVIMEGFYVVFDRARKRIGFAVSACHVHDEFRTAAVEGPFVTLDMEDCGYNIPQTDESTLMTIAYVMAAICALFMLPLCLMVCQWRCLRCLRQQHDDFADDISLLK

[4] = Microsomal stability assay, human liver microsomes;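 note: pooled human liver microsomes at 0.25 mg/mL with 1 µM compound and NADPH at 37 °C, pH 7.4, for 30 min, unchanged parent quantified by LC-MS/MS against the 0 min sample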
[5] = 2D6 IC50 (uM), CYP enzyme inhibition
[6] = HEK293, cell-based assay, HEK cells, IC50's in uM
[7] = 2D6 IC50, CYP enzyme inhibition
[8] = BACE enzyme assay, IC50's in uM
[9] = HEK293, HEK cell-based assay IC50
[10] = 2D6 IC50 (uM), CYP2D6 inhibition
[11] = HEK293, HEK cell-based assay, IC50's in uM

SMILES | RLM ([1]; rat liver microsomal data) | IC50 ([2]; HEK293, HEK cells) | IC50 (CYP3A4 (CYP3A)) | IC50 (CYP2D6; [5]) | IC50 ([3]; BACE enzyme assay) | HLM ([4]; human liver microsomal data) | IC50 [2, 6] | IC50 (CYP2D6; [7]) | IC50 [3, 8] | RLM ([1]; rat liver microsomes) | IC50 [2, 9] | IC50 (CYP2D6; [10]) | IC50 ([3]; BACE enzyme assay IC50) | HLM ([4]; human liver microsomes) | IC50 ([2]; HEK293, Table 2, HEK cells) | IC50 ([3]; Table 2) | IC50 [2, 11]
CO[C@H](C)C(=O)N[C@@H](Cc1ccccc1)[C@H](O)CN[C@H]1CC2(CCC2)Oc2c1cc(CC(C)(C)C)nc2-c1ccncc1 [compound 543] | 242 µL/min/mg | 0.255 µM | 0.1 µM | 2.6 µM | 0.037 µM | 41 µL/min/mg | – | – | – | – | – | – | – | – | – | – | –
CC(C)(C)Cc1cnc2c(c1)[C@@H](NC[C@@H](O)[C@H](Cc1cc(F)cc(-c3nccs3)c1)NC(=O)C1(C)CC1)CC1(CCC1)O2 [compound 876] | 91 µL/min/mg | – | 0.2 µM | – | – | 64 µL/min/mg | 0.132 µM | 0.3 µM | 0.036 µM | – | – | – | – | – | – | – | –
CC(C)Cc1cnc2c(c1)[C@@H](NC[C@@H](O)[C@H](Cc1ccc3c(c1)OCO3)NC(=O)[C@H](C)F)CC1(CCC1)O2 [compound 552] | 253 µL/min/mg | 0.369 µM | 0.2 µM | 2.3 µM | 0.049 µM | 73 µL/min/mg | – | – | – | – | – | – | – | – | – | – | –
CO[C@H](C)C(=O)N[C@@H](Cc1cccc(F)c1)[C@H](O)CN[C@H]1CC2(CCC2)Oc2c1cc(CC(C)(C)C)cc2-n1ccnc1 [compound 522] | 141 µL/min/mg | 0.013 µM | 0.1 µM | 3.1 µM | 0.044 µM | 43 µL/min/mg | – | – | – | – | – | – | – | – | – | – | –
COCC(=O)N[C@@H](Cc1ccc(F)c(-c2cncs2)c1)[C@H](O)CN[C@H]1CC2(CCC2)Oc2ncc(CC(C)(C)C)cc21 [compound 684, N-((1S,2R)-3-(((4′S)-6′-(2,2-dimethylpropyl)-3′,4′-dihydrospiro[cyclobutane-1,2′-pyrano[2,3-b]pyridin]-4′-yl)amino)-1-(4-fluoro-3-(1,3-thiazol-5-yl)benzyl)-2-hydroxypropyl)-2-methoxyacetamide] | – | – | 0.1 µM | – | – | – | – | – | – | 114 µL/min/mg | 0.012 µM | 0.2 µM | 0.005 µM | 56 µL/min/mg | – | – | –
COCC(=O)N[C@@H](Cc1ccc(F)cc1)[C@H](O)CN[C@H]1CC2(CCC2)Oc2c1cc(CC(C)(C)C)nc2-c1nccs1 [compound 451] | 682 µL/min/mg | – | 0.6 µM | – | – | 248 µL/min/mg | – | 9.4 µM | – | – | – | – | – | – | 0.271 µM | 0.019 µM | –
Cc1nc(CN2CCO[C@H](C(=O)N[C@@H](Cc3ccc(F)cc3)[C@H](O)CN[C@H]3CC4(CCC4)Oc4ncc(CC(C)(C)C)cc43)C2)cs1 [compound 762] | 522 µL/min/mg | – | 0.3 µM | 2.6 µM | – | 297 µL/min/mg | – | – | 0.037 µM | – | – | – | – | – | – | – | 0.037 µM
COCC(=O)N[C@@H](Cc1ccc(-c2nccs2)cc1)[C@H](O)CN[C@H]1CC2(CCC2)Oc2ncc(CC(C)C)cc21 [Example 434, N-((2S,3R)-3-hydroxy-4-((S)-6-isobutyl-2,2-spirocyclobutyl-3,4-dihydro-2H-pyrano[2,3-b]pyridin-4-ylamino)-1-(4-(thiazol-2-yl)phenyl)butan-2-yl)-2-methoxyacetamide] | 60 µL/min/mg | – | 0.2 µM | 1.3 µM | – | 80 µL/min/mg | – | – | 0.075 µM | – | – | – | – | – | – | – | 0.273 µM
CCCc1cnc2c(c1)[C@@H](NC[C@@H](O)[C@H](Cc1cc(F)cc(-c3nccs3)c1)NC(=O)[C@@H](C)OC)CC1(CCC1)O2 [compound 853] | 101 µL/min/mg | – | 0.4 µM | – | – | 93 µL/min/mg | 0.075 µM | 0.7 µM | 0.043 µM | – | – | – | – | – | – | – | –
Cc1cccc(CN2CCO[C@H](C(=O)N[C@@H](Cc3ccc(F)cc3)[C@H](O)CN[C@H]3CC4(CCC4)Oc4ncc(CC(C)(C)C)cc43)C2)c1 [compound 691] | – | – | 0.2 µM | – | – | – | – | – | – | 426 µL/min/mg | 0.104 µM | 3 µM | 0.078 µM | 543 µL/min/mg | – | – | –
CO[C@H](C)C(=O)N[C@@H](Cc1cc(F)cc(F)c1)[C@H](O)CN[C@H]1CC2(CCC2)Oc2cnc(CC(C)C)cc21 [compound 688] | – | – | 0.2 µM | – | – | – | – | – | – | 399 µL/min/mg | 0.036 µM | 3 µM | 0.009 µM | 921 µL/min/mg | – | – | –
